According to patent publication US4618677A, “Substituted phenylalkyl-(piperazinyl or homopiperazinyl)alkyl-thiols and -thiocarbamates useful for the treatment of immunological, inflammatory, and allergic disorders” (Boehringer Ingelheim Limited, priority 1984, dated 1986):
Several values for one entry are separate records, joined by “and”; a condition that tells them apart may be missing. Equal values may be shown once. Where a name gives a salt, the structure may show the parent alone. Read-outs that look alike come from different tables or passages of the source. Values belong to the compound of their own block, whether it stands above or below them.

How the values were obtained:
[1] = tested on: human leukocytes (basophils); experiment: Inhibition of IgE-mediated histamine release from human leukocytes (basophils), Procedure A; format: cell-based; details: for IC50: Leukocyte, 1 h, read-out: In Vitro Inhibition of Histamine Release IC50 (μM) Procedure A
Experimental: A. Procedure for Determining Inhibition of Histamine Release from Human Leukocytes (Basophils)
Separation of Leukocytes: A modification of the method of L. Lichtenstein and A. Osler, J. Exp. Med. 120, 507 (1964) is used. Heparinized human blood (80-100 ml) is mixed with 20 ml of saline (0.2%) containing 0.6 gm of dextrose and 1.2 gm of dextran in propylene centrifuge tubes. The mixture is kept at ambient temperature for 60-90 minutes to allow the separation of erythrocytes from the platelet-leukocyte-rich supernate. The supernate is removed and centrifuged for 8 minutes at 110 ×g in cold. The leukocyte pellet is washed twice with Tris buffer and finally suspended in 150-180 ml Tris-ACM buffer at 1-2 ×10^6 cells/ml.
Reaction Mixture: The reaction is carried out in 12×75 mm plastic tubes at a total volume of 1.23 ml. The reaction medium includes 0.05 ml rabbit anti-human IgE (the antigen), 0.2 ml of the test compound in water at concentrations ranging from 10-100 μM, and 1.0 ml of the leukocyte suspension. The reaction mixture is incubated in a 37° C. shaking water bath for 60 minutes. Upon completion of the reaction, the tubes are centrifuged and the supernatants collected. The protein is removed from the supernatants by precipitation with 0.2 ml of 8% perchloric acid.
Histamine Assay: Histamine release is measured by the automated fluorometric method of W. Siraganian and W. Hook in Chapter 102 of the Manual of Clinical Immunology, 2nd Edition, edited by R. Rose and H. Friedman, published by the American Society for Microbiology, Washington, D.C., 1980. Percent inhibition is calculated as follows: [formula]
The concentration which causes a 50 percent inhibition (IC50) of histamine release is interpolated from a plot of percent inhibition versus logarithm of drug concentration.

[2] = tested on: guinea pig basophils; experiment: Inhibition of histamine release from guinea pig basophils, Procedure C; format: cell-based; details: Cavia porcellus, 1 h; from guinea pig basophils (ovalbumin-sensitized); 60 min at 37° C.; > = no response detected at highest dose indicated; read-out: In Vitro Inhibition of Histamine Release IC50 (μM) Procedure C
Experimental: C. Procedure for Determining Inhibition of Histamine Release from Guinea Pig Basophils
1. In Vivo Sensitization: Male Hartley guinea pigs (200-300 gm) are immunized on day 0 with two 0.05 ml intradermal injections of 200 μg ovalbumin. Sensitized basophils are available between days 13-25 post-sensitization. This mode of sensitization favors IgE response.
2. Separation of Leukocytes: The method of Lett-Brown et al., Int. Arch. Allergy, Appl. Immun. 64, 241 (1981) is used. Animals are anesthetized with ether and are bled via cardiac puncture, with plastic syringes containing sufficient EDTA to provide a final concentration of 10 mM.
One part of 3% gelatin in saline at 37° C. is mixed with 2 parts of blood in a 16×150 mm tube. The cells are allowed to sediment at a 30° angle for 45 minutes in a 37° C. water bath. The leukocyte-rich plasma is collected and centrifuged at 150×g for 30 minutes at room temperature. The pelleted cells are washed in Hepes-buffered saline (HG) containing 4 mM EDTA and resuspended in Hepes-buffered saline containing […] and Ca^++ (HGCM) at 4-5×10^6 cells/ml.
3. Reaction Mixture: The reaction is carried out in 12×75 mm plastic tubes and a total volume of 1.2 ml which includes 0.5 ml of antigen, 0.2 ml of drug solution at concentrations ranging from 10-1000 μM and 0.5 ml of prewashed cell suspension. The reaction mixture is incubated in a 37° C. shaking water bath for 60 minutes. Upon completion of the reaction, the tubes are centrifuged and the supernatants collected. The protein is removed from the supernatants by precipitation with 0.2 ml of 8% perchloric acid.
4. Histamine Assay: Histamine release is measured by the automated fluorometric method of Siraganian, supra. The concentration which causes a 50 percent inhibition of histamine release is computed as in Part A.

[3] = tested on: rat peritoneal mast cells; experiment: Inhibition of histamine release from rat peritoneal mast cells, Procedure B; format: cell-based; details: Mast cell, 1 h; from rat peritoneal mast cells; sheep anti-rat IgE or ovalbumin; 60 min at 37° C.; read-out: In Vitro Inhibition of Histamine Release IC50 (μM) Procedure B
Experimental: B. Procedure for Determining Inhibition of Histamine Release from Rat Peritoneal Mast Cells
Harvest of Peritoneal Mast Cells: After the rats are sacrificed with ether, 20 ml of Minimum Essential Medium (MEM) containing 20 units/ml heparin is injected into the peritoneum. The abdomen is massaged for one minute and the lavage fluid collected. The peritoneal cells are centrifuged at 1800 rpm for 8 minutes in cold. After two washes with Tris A buffer, the cells are resuspended in Tris ACM buffer at 2-4×10^6 cells/ml.
Reaction mixture: The reaction is carried out in 12×75 mm plastic tubes at a total volume of 1.25 ml. The reaction mixture includes 0.5 ml (10-1000 μg) sheep anti-rat IgE or ovalbumin, 0.2 ml of the test compound in water at concentrations ranging from 10-1000 μM, 0.5 ml phosphatidylserine solution (20-60 μg to each tube), and 0.5 ml of cell suspension.
The concentration which causes a 50% inhibition (IC50) of histamine release is computed as in Part A.

[4] = target: T1, histamine (H1) receptor (Cavia porcellus, UniProt P31389); experiment: Antagonism of histamine-induced contraction of isolated guinea pig ileum; format: tissue-based; details: histamine final concentration 0.2 μg/ml, 50% reduction of contractile response, read-out: Inhibition IC50 (μM) of histamine-induced contraction
T1 construct: contraction of isolated guinea pig ileum; from tissue; host or cells: isolated guinea pig ileum
From the text: Certain compounds of formula I inhibit in vitro the histamine-induced contraction of isolated guinea pig ileum and are useful in warm-blooded animals for antagonizing the action of histamine at the histamine (H1) receptor. Accordingly, these compounds can be employed in a conventional manner as antihistamine agents for the treatment of allergic disorders, for example allergic rhinitis, vasomotor rhinitis, allergic conjunctivitis, hay fever, urticaria, and food allergies.
The antagonism of the effects of histamine on the contraction of isolated guinea pig ileum by the compounds of formula I can be determined by the procedure of G. Possanza, A. Bauen, and P. Stewart, Int. Arch. Allergy Appl. Immunol., 49, 289 (1975). The degree of inhibition is determined as the difference between the contraction caused by histamine (final concentration 0.2 μg/ml) alone and that seen in the presence of both histamine and the test compound. The inhibitory activity of the test compound is expressed as that concentration of the compound which causes a 50% reduction of the contractile response (IC50).

[5] = from human basophils, rabbit anti-human IgE as antigen, 60 min at 37° C., > = no response detected at highest dose indicated

T1 sequence (P31389 whole entry): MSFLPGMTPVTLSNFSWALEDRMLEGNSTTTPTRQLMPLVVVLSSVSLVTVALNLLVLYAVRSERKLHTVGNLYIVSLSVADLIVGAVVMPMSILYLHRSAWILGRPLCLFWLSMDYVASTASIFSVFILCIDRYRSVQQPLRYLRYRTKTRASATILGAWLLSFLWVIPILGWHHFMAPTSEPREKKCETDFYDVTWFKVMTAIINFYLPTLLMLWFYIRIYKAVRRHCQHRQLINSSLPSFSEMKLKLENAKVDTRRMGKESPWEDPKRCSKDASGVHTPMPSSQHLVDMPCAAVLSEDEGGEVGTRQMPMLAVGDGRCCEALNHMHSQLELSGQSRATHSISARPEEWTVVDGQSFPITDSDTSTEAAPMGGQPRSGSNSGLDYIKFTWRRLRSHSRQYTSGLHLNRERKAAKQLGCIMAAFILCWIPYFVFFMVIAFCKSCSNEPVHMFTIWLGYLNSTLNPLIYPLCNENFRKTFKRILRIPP

Compound: COc1ccc(NC(=O)SCCCN2CCN(Cc3ccc(Cl)cc3)CC2)cc1 [Example 14, N-(4-Methoxyphenyl)-S-{3-[4-(4-chlorobenzyl)piperazin-1-yl]propyl}thiocarbamate dihydrochloride monohydrate]
IC50 [4]: 0.12 µM

Compound: CC1CN(Cc2ccc(Cl)cc2)C(C)CN1CCCSC(=O)Nc1ccccc1 (stereo not drawn) [Example 20, N-Phenyl-S-{3-[4-(4-chlorobenzyl)-2,5-dimethylpiperazin-1-yl]propyl}thiocarbamate dihydrochloride]
IC50 [1, 5]: > 1000 µM

Compound: CNC(=O)SCCCN1CCN(Cc2ccc(Cl)cc2)CC1 [Example 4, N-Methyl-S-{3-[4-(4-chlorobenzyl)piperazin-1-yl]propyl}thiocarbamate dihydrochloride]
IC50 [4]: 0.19 µM
In Vitro Inhibition of Histamine Release IC50 (μM) Procedure A [1, 5]: Int.

Compound: SCCCN1CCN(Cc2ccccc2)CC1 [Example 1, 3-(4-Benzylpiperazin-1-yl)propanethiol dihydrochloride]
IC50 ([1]; Homo sapiens): 140 µM

Compound: Cc1ccc(CN2CCN(CCCS)CC2)cc1 [Example 17, 3-[4-(4-Methylbenzyl)piperazin-1-yl]propanethiol dihydrochloride]
IC50 ([1]; Homo sapiens): 24 µM

Compound: O=C(Nc1ccccc1)SCCCN1CCN(Cc2ccccc2)CC1 [Example 2, N-Phenyl-S-[3-(4-benzylpiperazin-1-yl)propyl]thiocarbamate dihydrochloride monohydrate]
IC50 [1, 5]: 310 µM

Compound: O=C(Nc1ccc(Cl)c(Cl)c1)SCCCN1CCN(Cc2ccc(Cl)cc2)CC1 [Example 11, N-(3,4-Dichlorophenyl)-S-{3-[4-(4-chlorobenzyl)piperazin-1-yl]propyl}thiocarbamate dihydrochloride]
IC50 [1, 5]: > 1000 µM

Compound: O=C(Nc1ccc(Cl)cc1)SCCCN1CCN(Cc2ccc(Cl)cc2)CC1 [Example 10, N-(4-Chlorophenyl)-S-{3-[4-(4-chlorobenzyl)piperazin-1-yl]propyl}thiocarbamate dihydrochloride monohydrate]
IC50 [1, 5]: 47 µM

Compound: CC(c1ccccc1)N1CCN(CCCSC(=O)Nc2ccccc2)CC1 (stereo not drawn) [Example 22, N-Phenyl-S-{3-[4-(1-phenylethyl)piperazin-1-yl]propyl}thiocarbamate dihydrochloride dihydrate]
IC50 [1, 5]: 67 µM

Compound: O=C(Nc1ccccc1)SCCCN1CCN(CCc2ccc(Cl)cc2)CC1 [Example 26, N-Phenyl-S-{3-[4-(4-chlorophenethyl)piperazin-1-yl]propyl}thiocarbamate dihydrochloride monohydrate]
IC50 [4]: 0.06 µM
IC50 [1, 5]: 25 µM

Compound: COc1ccccc1NC(=O)SCCCN1CCN(Cc2ccc(Cl)cc2)CC1 [Example 12, N-(2-Methoxyphenyl)-S-{3-[4-(4-chlorobenzyl)piperazin-1-yl]propyl}thiocarbamate dihydrochloride sesquihydrate]
IC50 [1, 5]: > 300 µM

Compound: SCCCN1CCN(Cc2ccc(Cl)cc2)CC1 [Example 3, 3-[4-(4-Chlorobenzyl)piperazin-1-yl]propanethiol dihydrochloride]
IC50 ([1]; Homo sapiens): 4 µM

Compound: Cc1ccc(CN2CCN(CCCSC(=O)Nc3ccccc3)CC2)cc1 [Example 18, N-Phenyl-S-{3-[4-(4-methylbenzyl)piperazin-1-yl]propyl}thiocarbamate dihydrochloride sesquihydrate]
IC50 [1, 5]: > 1000 µM

Compound: O=C(Nc1ccccc1)SCCCN1CCN(CCc2ccccc2)CC1 [Example 24, N-Phenyl-S-[3-(4-phenethylpiperazin-1-yl)propyl]thiocarbamate dihydrochloride monohydrate]
IC50 [1, 5]: > 1000 µM

Compound: CCCCc1ccc(NC(=O)SCCCN2CCN(Cc3ccc(Cl)cc3)CC2)cc1 [Example 8, N-(4-n-Butylphenyl)-S-{3-[4-(4-chlorobenzyl)piperazin-1-yl]propyl}thiocarbamate dihydrochloride]
IC50 [1, 5]: 760 µM

Compound: O=C(Nc1ccc(F)cc1)SCCCN1CCN(Cc2ccc(Cl)cc2)CC1 [Example 9, N-(4-Fluorophenyl)-S-{3-[4-(4-chlorobenzyl)piperazin-1-yl]propyl}thiocarbamate dihydrochloride]
IC50 [4]: 0.12 µM
IC50 [1, 5]: 11 µM

Compound: CC(C)NC(=O)SCCCN1CCN(Cc2ccc(Cl)cc2)CC1 [Example 5, N-Isopropyl-S-{3-[4-(4-chlorobenzyl)piperazin-1-yl]propyl}thiocarbamate dihydrochloride]
IC50 [4]: 0.21 µM and 0.3 µM
In Vitro Inhibition of Histamine Release IC50 (μM) Procedure A [1, 5]: Int.

Compound: COc1cccc(NC(=O)SCCCN2CCN(Cc3ccc(Cl)cc3)CC2)c1 [Example 13, N-(3-Methoxyphenyl)-S-{3-[4-(4-chlorobenzyl)piperazin-1-yl]propyl}thiocarbamate dihydrochloride]
IC50 [1, 5]: 140 µM

The next lines start with results.

IC50 [1, 5]: 58 µM
Compound: CC(C)(C)NC(=O)SCCCN1CCN(Cc2ccc(Cl)cc2)CC1 [Example 47, N-(t-Butyl)-S-{3-[4-(4-chlorobenzyl)piperazin-1-yl]propyl}thiocarbamate dihydrochloride sesquihydrate]

IC50 [3]: 2 µM
IC50 [1, 5]: 5 µM
Compound: CCCCc1ccc(NC(=O)SCCCN2CCN(CCCc3ccc(Cl)cc3)CC2)cc1 [Example 33, N-(4-n-Butylphenyl)-S-{3-[4-[3-(4-chlorophenyl)propyl]piperazin-1-yl]propyl}thiocarbamate dihydrochloride]
IC50 [2]: 14 µM

IC50 [1, 5]: 3 µM
Compound: O=C(Nc1ccccc1)SCCN1CCN(Cc2ccc(Cl)cc2)CC1 [Example 37, N-phenyl-S-{2-[4-(4-chlorobenzyl)piperazin-1-yl]ethyl}thiocarbamate dihydrochloride]

IC50 [1, 5]: 71 µM
Compound: CCCCCCNC(=O)SCCCN1CCN(Cc2ccc(Cl)cc2)CC1 [Example 40, N-(n-Hexyl)-S-{3-[4-(4-chlorobenzyl)piperazin-1-yl]propyl}thiocarbamate dihydrochloride]

IC50 [1, 5]: 13 µM
Compound: COc1ccc(NC(=O)SCCCN2CCN(CCCc3ccc(Cl)cc3)CC2)cc1 [Example 39, N-(4-Methoxyphenyl)-S-{3-[4-[3-(4-chlorophenyl)propyl]piperazin-1-yl]propyl]thiocarbamate dihydrochloride hemihydrate]

IC50 [1, 5]: 3 µM
Compound: SCCCN1CCCN(Cc2ccc(Cl)cc2)CC1 [Example 45, 3-[4-(4-Chlorobenzyl)homopiperazin-1-yl]propanethiol]

IC50 [1, 5]: > 1000 µM
Compound: CCCCCCNC(=O)SCCCN1CCN(CC=Cc2ccccc2)CC1 [Example 44, N-(n-Hexyl)-S-[3-(4-cinnamylpiperazin-1-yl)propyl]thiocarbamate dihydrochloride]

IC50 [4]: 0.18 µM
IC50 [1, 5]: 9 µM
Compound: COc1cc(NC(=O)SCCCN2CCN(CCc3ccc(Cl)cc3)CC2)cc(OC)c1OC [Example 29, N-(3,4,5-Trimethoxyphenyl)-S-{3-[4-(4-chlorophenethyl)piperazin-1-yl]propyl}thiocarbamate dihydrochloride]

IC50 [1, 5]: > 1000 µM
Compound: O=C(Nc1ccccc1)SCCCN1CCN(c2ccc(F)cc2)CC1 [Example 35, N-Phenyl-S-{3-[4-(4-fluorophenyl)piperazin-1-yl]propyl}thiocarbamate dihydrochloride]

IC50 [1, 5]: 12 µM
Compound: CCCCCCNC(=O)SCCCN1CCCN(Cc2ccc(Cl)cc2)CC1 [Example 46, N-(n-Hexyl)-S-{3-[4-(4-chlorobenzyl)homopiperazin-1-yl]propyl}thiocarbamatedihydrochloride]

IC50 [1, 5]: 30 µM
Compound: CCCCc1ccc(NC(=O)SCCCN2CCN(CCc3ccc(Cl)cc3)CC2)cc1 [Example 27, N-(4-n-Butylphenyl)-S-{3-[4-(4-chlorophenethyl)piperazin-1-yl]propyl}thiocarbamate dihydrochloride]
